The subject of data set [1] is rabbit platelet (ADP-induced aggregation). The data set can be described thus: Platelet aggregation inhibitory effect, ADP-induced aggregation in rabbit platelet. The note with it: Oryctolagus cuniculus; for inhibition at 100 µM: concentration of the test compound solution 10^-4 mole; for inhibition at 100 µM / inhibition at 10 µM: read-out: Inhibition effect on ADP-induced aggregation in rabbit platelet; for inhibition at 10 µM: concentration of the test compound solution 10^-5 mole; for inhibition at 1 µM: concentration of the test compound solution 10^-6 mole. The data set is classed as cell-based. An excerpt:
The blood sample used for the test is a 1/9 (by volume) mixture of sodium citrate and whole blood collected from rabbit. Said sample is subjected to 10-minute centrifugal separation at 1,000 r.p.m. to obtain a platelet rich plasma (PRP). The thus obtained PRP is separated, and the remaining blood sample is further subjected to 15-minute centrifugal separation at 3,000 r.p.m. to obtain a platelet poor plasma (PPP).
The number of platelets in the PRP is counted by the Brecher-Clonkite Method, and the PRP is diluted with the PPP to prepare a PRP sample with platelet concentration of 300,000/mm^3 for the adenosine diphosphate (ADP)-induced aggregation test. There is also prepared a PRP sample with platelet concentration of 450,000/mm^3 for the collagen-induced aggregation test.
0.6 Ml of said PRP sample is added into 0.01 ml of a solution of a test compound of a predetermined concentration and the mixture is placed in a 37° C. thermostat for one minute. Then 0.07 ml of an ADP or collagen solution is added to the mixture. Transmittance of this mixture is determined and the change of transmittance is recorded by using the aggregometer at stirrer speed of 1,100 r.p.m. […] ADP is adjusted to a concentration of 7.5×10^-5 M, and the collagen solution is prepared by triturating 100 mg of collagen with 5 ml of said buffer and the supernatant is used as collagen inducer. Adenosine and acetylsalicylic acid are used as controls for the ADP-induced aggregation test and the collagen-induced aggregation test, respectively. The platelet aggregation inhibitory effect is measured in terms of percent inhibition with respect to the aggregation rate of the controls. The aggregation rate is calculated from the following formula: [formula] wherein a: transmittance of PRP
b: transmittance of PRP containing a test compound and an aggregation inducer
The compounds tested are as follows.

The test system of data set [2] is Gold blatt type renoprival hypertension rats (RHR). The data set can be described thus: Hypo-tensive effect, Gold blatt type renoprival hypertension rats (RHR), tail-cuff method. The data set is classed as in vivo, rat. The note with it: 30 mg/kg oral, mean ± standard deviation. As for the experimental part: (§1) Hypo-tensive effect of the compounds was measured by determining the maximum blood pressure of the test animals according to a procedure of Tail-cuff method.
(§2) The following types of test animals were used:
(1) Gold blatt type renoprival hypertension rats (RHR)
Wistar strain male rats having 160-180 g of body weight were anesthetized with ether and the left-side renal artery was plugged with a silver clip having 0.2 mm inside diameter, while the right-side renal artery was kept as it was without operation. Four (4) weeks after the operation, rats having the maximum blood pressure over 150 mmHg were selected and used as test animals after having been denied food overnight.
(§3) Each of compounds to be tested was administered orally and the blood pressure of the rats was measured before the administration and 1, 2, 4, 6 and 8 hours after the administration. The blood pressure was measured by using Recorder (Rectihoriz type 8S, San-ei Instrument) and Electrosthygmomanometer PE-300 (Macro Bio-systems, Houston, Tex.).

In data set [3] the test system is Deoxycorticosteroneacetate (DOCA)/saline hypertension rats (DHR). The data set can be described thus: Hypo-tensive effect, Deoxycorticosteroneacetate (DOCA)/saline hypertension rats (DHR), tail-cuff method. In kind it is in vivo, rat. The note with it: 30 mg/kg oral, mean ± standard deviation. On the procedure: as §1, §2
(2) Deoxycorticosteroneacetate (DOCA)/saline hypertension rats (DHR)
Wistar strain male rats having 150-170 g of body weight were anesthetized with ether and the left-side kidney was enucleated. One(1) week after the operation, 10 mg/kg of DOCA was injected subcutaneously once a week and 1% NaCl aqueous solution was given as drinking water. Five(5) weeks after the operation, rats having the maximum blood pressure over 150 mmHg were selected and used as test animals after having been denied food overnight.
as §3

Data set [4] in a line: Acute toxicity test. Conditions: mouse, in vivo; male mice, oral administration. As for the experimental part:
The test compounds were administered orally to the mice and LD50 (mg/kg) of the compounds was determined.

The text below walks through data of patent US4277479A, “Tetrazolylalkoxycarbostyril derivatives and pharmaceutical compositions containing them” (Otsuka Pharmaceutical Co., Ltd., priority 1978, dated 1981).

One may read the inhibition as the percentage by which the read-out fell short of the control. As a reminder, the LD50 is the dose expected to kill half of the subjects tested. A higher LD50 goes with a less toxic substance. Consider `O=c1ccc2cc(OCCCc3nnnn3C3CCCCC3)ccc2[nH]1` [Compound 1, 6-[3-(1-Cyclohexyltetrazol-5-yl)propoxy]carbostyril], for which the inhibition at 100 µM in data set [1] came out at 100%. The inhibition at 10 µM in data set [1] amounted to 63.4%. This compound also yielded an inhibition at 1 µM in data set [1] of 32.7%. Further, the “Maximum blood pressure, difference after the administration” value (“Maximum blood pressure, difference” below) in data set [2] (1 hour) is listed as -3.3 ± 5.2 mmHg; in data set [2] (2 hours) it was -9.9 ± 6.7 mmHg; in data set [2] (4 hours) it was -36.7 ± 9.7 mmHg; in data set [2] (6 hours), -33.4 ± 8.6 mmHg; in data set [2] (8 hours), -31.3 ± 8.8 mmHg; in data set [3] (1 hour) it was -10.1 ± 3.7 mmHg. In addition, the “Maximum blood pressure, difference” value was -10.0 ± 3.7 mmHg in data set [3] (2 hours), -17.4 ± 5.2 mmHg in data set [3] (4 hours), -25.4 ± 10.5 mmHg in data set [3] (6 hours) and -34.6 ± 13.5 mmHg in data set [3] (8 hours). In data set [4], the LD50 is more than 1000 mg/kg.

As for `O=c1ccc2cc(OCCCc3nnnn3CC3CCCCC3)ccc2[nH]1` [Compound 5, 6-[3-(1-Cyclohexylmethyltetrazol-5-yl)propoxy]carbostyril], in data set [1], the inhibition at 100 µM came out at 100%. The inhibition at 10 µM in data set [1] turned out to be 64.1%. In data set [1], this compound showed an inhibition at 1 µM of 34.2%. Further, the “Maximum blood pressure, difference” value in data set [2] (1 hour) is reported as -30.2 ± 8.2 mmHg; in data set [2] (2 hours), -21.2 ± 5.7 mmHg; in data set [2] (4 hours), -21.7 ± 7.5 mmHg; in data set [2] (6 hours), -24.7 ± 10.4 mmHg; in data set [3] (1 hour), -10.7 ± 10.6 mmHg; in data set [3] (2 hours), -15.2 ± 11.2 mmHg. The entries for the “Maximum blood pressure, difference” value in data set [3] (4 hours) and in data set [3] (6 hours) were -12.5 ± 15.3 mmHg and -18.1 ± 9.6 mmHg, respectively. In data set [4], this compound gave an LD50 of more than 1000 mg/kg.

Take `O=c1ccc2cc(OCCCc3nnnn3C3CCCCCCC3)ccc2[nH]1` [Compound 6, 6-[3-(1-Cyclooctyltetrazol-5-yl)propoxy]carbostyril]: the inhibition at 100 µM in data set [1] came out at 100%. Further, in data set [1], the inhibition at 10 µM was determined as 75.5%. The inhibition at 1 µM in data set [1] was found to be 30.5%. The “Maximum blood pressure, difference” value in data set [2] (1 hour) is on record as -8.5 ± 4.3 mmHg; in data set [2] (2 hours), -10.7 ± 7.6 mmHg; in data set [2] (4 hours), -40.8 ± 9.9 mmHg; in data set [2] (6 hours), -35.4 ± 9.5 mmHg; in data set [2] (8 hours), -28.4 ± 7.7 mmHg; in data set [3] (1 hour), -9.2 ± 4.8 mmHg. Also, the “Maximum blood pressure, difference” value in data set [3] (2 hours) is on record as -12.0 ± 5.6 mmHg; in data set [3] (4 hours), -18.5 ± 6.1 mmHg; in data set [3] (6 hours), -30.3 ± 10.8 mmHg; in data set [3] (8 hours), -26.8 ± 10.6 mmHg. The compound also registered an LD50 in data set [4] of more than 1000 mg/kg.

`O=c1ccc2cc(OCCCCc3nnnn3C3CCCCC3)ccc2[nH]1` [Compound 7, 6-[4-(1-Cyclohexyltetrazol-5-yl)butoxy]carbostyril]: the inhibition at 100 µM in data set [1] stood at 100%. Further, the inhibition at 10 µM in data set [1] stood at 59.9%. This compound gave an inhibition at 1 µM in data set [1] of 28.7%. Also, the “Maximum blood pressure, difference” value was -9.5 ± 10.4 mmHg in data set [2] (1 hour); -12.6 ± 8.9 mmHg in data set [2] (2 hours); -34.9 ± 19.8 mmHg in data set [2] (4 hours); -30.4 ± 8.6 mmHg in data set [2] (6 hours); -19.7 ± 8.4 mmHg in data set [2] (8 hours); -8.4 ± 10.3 mmHg in data set [3] (1 hour). Besides, the “Maximum blood pressure, difference” value was -11.5 ± 8.5 mmHg in data set [3] (2 hours), -14.8 ± 7.7 mmHg in data set [3] (4 hours), -20.2 ± 14.0 mmHg in data set [3] (6 hours) and -21.3 ± 19.1 mmHg in data set [3] (8 hours). The compound further yielded an LD50 in data set [4] of more than 1000 mg/kg.
